Data taken from the supplement of paper PMC11061612.

Legend:
Carboplatin = compound: C1CC(C1)(C(=O)[O-])C(=O)[O-].N.N.[Pt+2] [Carboplatin]; settings: max 10 µM
Method in brief: (§1)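 Cancer cell lines were seeded into 1536-well plates in 7.5 μl medium (DMEM/F12 or RPMI, 10% FBS), held 24 hours at 37°C and 5% CO2, and dosed for 72 hours with final DMSO typically 0.2%. Luminescence from CellTiter-Glo 2.0, scaled between blank-well and DMSO-well means, served as viability. The single-agent IC50 was obtained from dose-response fits with a non-linear mixed effects model, each fit being a two-parameter logistic curve.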

AZD5363 = compound: C1CN(CCC1(C(=O)N[C@@H](CCO)C2=CC=C(C=C2)Cl)N)C3=NC=NC4=C3C=CN4 [AZD5363]; settings: max 10 µM
Method in brief: as §1

AZD1775 = compound: C=CCn1c(=O)c2cnc(Nc3ccc(N4CCN(C)CC4)cc3)nc2n1-c1cccc(C(C)(C)O)n1 [AZD1775]; settings: max 3 µM
Method in brief: as §1

Trametinib = compound: CC(=O)Nc1cccc(-n2c(=O)n(C3CC3)c(=O)c3c(Nc4ccc(I)cc4F)n(C)c(=O)c(C)c32)c1 [Trametinib]; settings: max 1 µM
Method in brief: as §1

Paclitaxel = compound: CC(=O)O[C@H]1C(=O)[C@@]2(C)[C@H]([C@H](OC(=O)c3ccccc3)[C@]3(O)C[C@H](OC(=O)[C@H](O)[C@@H](NC(=O)c4ccccc4)c4ccccc4)C(C)=C1C3(C)C)[C@]1(OC(C)=O)CO[C@@H]1C[C@@H]2O [Paclitaxel]; settings: max 3 µM
Method in brief: as §1

Palbociclib = compound: CC(=O)c1c(C)c2cnc(Nc3ccc(N4CCNCC4)cn3)nc2n(C2CCCC2)c1=O [Palbociclib]; settings: max 10 µM
Method in brief: as §1

AZD1390 = compound: CC(C)n1c(=O)n(C)c2cnc3cc(F)c(-c4ccc(OCCCN5CCCCC5)nc4)cc3c21 [AZD1390]; settings: max 0.3 µM
Method in brief: as §1

Venetoclax = compound: CC1(C)CCC(CN2CCN(c3ccc(C(=O)NS(=O)(=O)c4ccc(NCC5CCOCC5)c([N+](=O)[O-])c4)c(Oc4cnc5[nH]ccc5c4)c3)CC2)=C(c2ccc(Cl)cc2)C1 [Venetoclax]; settings: max 1 µM
Method in brief: as §1

Dasatinib = compound: CC1=C(C(=CC=C1)Cl)NC(=O)C2=CN=C(S2)NC3=CC(=NC(=N3)C)N4CCN(CC4)CCO [Dasatinib]; settings: max 2 µM
Method in brief: as §1

SG3199 = compound: CC1=CN2[C@@H](C1)C=NC3=CC(=C(C=C3C2=O)OC)OCCCCCOC4=C(C=C5C(=C4)N=C[C@@H]6CC(=CN6C5=O)C)OC [SG3199]; settings: max 0.001 µM
Method in brief: as §1

AZD2811 = compound: CCN(CCO)CCCOc1ccc2c(Nc3cc(CC(=O)Nc4cccc(F)c4)[nH]n3)ncnc2c1 [AZD2811]; settings: max 1 µM
Method in brief: as §1

SN-38 = compound: CCc1c2c(nc3ccc(O)cc13)-c1cc3c(c(=O)n1C2)COC(=O)[C@]3(O)CC [SN-38]; settings: max 0.3 µM
Method in brief: as §1

AZD0156 = compound: CN(C)CCCOc1ccc(-c2ccc3ncc4c(c3c2)n(C2CCOCC2)c(=O)n4C)cn1 [AZD0156]; settings: max 3 µM
Method in brief: as §1

AZD4320 = compound: CN(CC[C@H](CSC1=CC=CC=C1)NC2=C(C=C(C=C2)S(=O)(=O)NC(=O)C3=CC=C(C=C3)N4CCC(CC4)[C@H](C5=CC=CC=C5C6=CC=C(C=C6)Cl)O)S(=O)(=O)C(F)(F)F)CCO [AZD4320]; settings: max 1 µM
Method in brief: as §1

Alisertib = compound: COc1cc(Nc2ncc3c(n2)-c2ccc(Cl)cc2C(c2c(F)cccc2OC)=NC3)ccc1C(=O)O [Alisertib]; settings: max 10 µM
Method in brief: as §1

Etoposide = compound: COc1cc([C@@H]2c3cc4c(cc3[C@@H](O[C@@H]3O[C@@H]5CO[C@@H](C)O[C@H]5[C@H](O)[C@H]3O)[C@H]3COC(=O)[C@H]23)OCO4)cc(OC)c1O [Etoposide]; settings: max 10 µM
Method in brief: as §1

Gefitinib = compound: COc1cc2ncnc(Nc3ccc(F)c(Cl)c3)c2cc1OCCCN1CCOCC1 [Gefitinib]; settings: max 10 µM
Method in brief: as §1

Prexasertib = compound: COc1cccc(OCCCN)c1-c1cc(Nc2cnc(C#N)cn2)n[nH]1 [Prexasertib]; settings: max 1 µM
Method in brief: as §1

Doxorubicin = compound: COc1cccc2c1C(=O)c1c(O)c3c(c(O)c1C2=O)C[C@@](O)(C(=O)CO)C[C@@H]3O[C@H]1C[C@H](N)[C@H](O)[C@H](C)O1 [Doxorubicin]; settings: max 1 µM
Method in brief: as §1

AZD5153 = compound: COc1nnc2ccc(N3CCC(c4ccc(OCCN5CCN(C)C(=O)[C@H]5C)cc4)CC3)nn12 [AZD5153]; settings: max 1 µM
Method in brief: as §1

Lapatinib = compound: CS(=O)(=O)CCNCc1ccc(-c2ccc3ncnc(Nc4ccc(OCc5cccc(F)c5)c(Cl)c4)c3c2)o1 [Lapatinib]; settings: max 10 µM
Method in brief: as §1

AZD8186 = compound: C[C@@H](Nc1cc(F)cc(F)c1)c1cc(C(=O)N(C)C)cc2c(=O)cc(N3CCOCC3)oc12 [AZD8186]; settings: max 10 µM
Method in brief: as §1

Crizotinib = compound: C[C@@H](Oc1cc(-c2cnn(C3CCNCC3)c2)cnc1N)c1c(Cl)ccc(F)c1Cl [Crizotinib]; settings: max 10 µM
Method in brief: as §1

Savolitinib = compound: C[C@@H](c1ccc2nccn2c1)n1nnc2ncc(-c3cnn(C)c3)nc21 [Savolitinib]; settings: max 1 µM
Method in brief: as §1

AZD6738 = compound: C[C@@H]1COCCN1C2=NC(=NC(=C2)C3(CC3)[S@](=N)(=O)C)C4=C5C=CNC5=NC=C4 [AZD6738]; settings: max 10 µM
Method in brief: as §1

AZD5991 = compound: Cc1c2c(nn1C)CSCc1cc(n(C)n1)CSc1cc(c3ccccc3c1)OCCCc1c(C(=O)O)n(C)c3c-2c(Cl)ccc13 [AZD5991]; settings: max 1 µM
Method in brief: as §1

AZD7648 = compound: Cc1cc2ncnn2cc1Nc1ncc2c(n1)n(C1CCOCC1)c(=O)n2C [AZD7648]; settings: max 10 µM
Method in brief: as §1

Taselisib = compound: Cc1nc(-c2cn3c(n2)-c2ccc(-c4cnn(C(C)(C)C(N)=O)c4)cc2OCC3)n(C(C)C)n1 [Taselisib]; settings: max 10 µM
Method in brief: as §1

Selumetinib = compound: Cn1cnc2c(F)c(Nc3ccc(Br)cc3Cl)c(C(=O)NOCCO)cc21 [Selumetinib]; settings: max 10 µM
Method in brief: as §1

SRA737 = compound: N#Cc1cnc(Nc2cc(NC[C@H]3CNCCO3)c(C(F)(F)F)cn2)cn1 [SRA737]; settings: max 10 µM
Method in brief: as §1

MK-2206 = compound: NC1(c2ccc(-c3nc4ccn5c(=O)[nH]nc5c4cc3-c3ccccc3)cc2)CCC1 [MK-2206]; settings: max 10 µM
Method in brief: as §1

Gemcitabine = compound: Nc1ccn([C@@H]2O[C@H](CO)[C@@H](O)C2(F)F)c(=O)n1 [Gemcitabine]; settings: max 0.3 µM
Method in brief: as §1

[1] = compound: O=C(Nc1ccc2[nH]nc(-c3ccncc3)c2c1)[C@@H]1CCN(CC(=O)N2CCN(c3ccc(-c4ncccn4)cc3)CC2)C1; settings: max 5 µM
Method in brief: as §1

Olaparib = compound: O=C(c1cc(Cc2n[nH]c(=O)c3ccccc23)ccc1F)N1CCN(C(=O)C2CC2)CC1 [Olaparib]; settings: max 10 µM
Method in brief: as §1

5-Fluorouracil = compound: O=c1[nH]cc(F)c(=O)[nH]1 [5-Fluorouracil]; settings: max 20 µM
Method in brief: as §1

Cell Line	IC50, cell viability 72 h (Carboplatin) [µM]	IC50, cell viability 72 h (AZD5363) [µM]	IC50, cell viability 72 h (AZD1775) [µM]	IC50, cell viability 72 h (Trametinib) [µM]	IC50, cell viability 72 h (Paclitaxel) [µM]	IC50, cell viability 72 h (Palbociclib) [µM]	IC50, cell viability 72 h (AZD1390) [µM]	IC50, cell viability 72 h (Venetoclax) [µM]	IC50, cell viability 72 h (Dasatinib) [µM]	IC50, cell viability 72 h (SG3199) [µM]	IC50, cell viability 72 h (AZD2811) [µM]	IC50, cell viability 72 h (SN-38) [µM]	IC50, cell viability 72 h (AZD0156) [µM]	IC50, cell viability 72 h (AZD4320) [µM]	IC50, cell viability 72 h (Alisertib) [µM]	IC50, cell viability 72 h (Etoposide) [µM]	IC50, cell viability 72 h (Gefitinib) [µM]	IC50, cell viability 72 h (Prexasertib) [µM]	IC50, cell viability 72 h (Doxorubicin) [µM]	IC50, cell viability 72 h (AZD5153) [µM]	IC50, cell viability 72 h (Lapatinib) [µM]	IC50, cell viability 72 h (AZD8186) [µM]	IC50, cell viability 72 h (Crizotinib) [µM]	IC50, cell viability 72 h (Savolitinib) [µM]	IC50, cell viability 72 h (AZD6738) [µM]	IC50, cell viability 72 h (AZD5991) [µM]	IC50, cell viability 72 h (AZD7648) [µM]	IC50, cell viability 72 h (Taselisib) [µM]	IC50, cell viability 72 h (Selumetinib) [µM]	IC50, cell viability 72 h (SRA737) [µM]	IC50, cell viability 72 h (MK-2206) [µM]	IC50, cell viability 72 h (Gemcitabine) [µM]	IC50, cell viability 72 h [1] [µM]	IC50, cell viability 72 h (Olaparib) [µM]	IC50, cell viability 72 h (5-Fluorouracil) [µM]
SK-PN-DW (Other Solid Carcinomas)	> 10	4.78	1.59	> 1	0.011	> 10	> 0.3	0.757	> 2	> 0.001	0.191	0.00405	> 3	> 1	0.119	1.53	> 10	0.00583	0.199	0.562	> 10	> 10	4.41	> 1	0.558	0.07	> 10	4.42	> 10	0.986	> 10	> 0.3	> 5	> 10	5.01
LK-2 (Squamous Cell Lung Carcinoma)	> 10	> 10	0.295	0.349	0.00555	> 10	> 0.3	> 1	> 2	> 0.001	0.0551	0.199	> 3	> 1	0.0606	9.26	> 10	0.137	> 1	> 1	> 10	> 10	5.71	> 1	> 10	> 1	> 10	> 10	> 10	> 10	> 10	0.277	1.93	> 10	> 20
CAL-62 (Thyroid Gland Carcinoma)	> 10	> 10	1.32	0.551	0.00733	> 10	> 0.3	> 1	0.784	> 0.001	> 1	0.00459	> 3	> 1	> 10	3.42	> 10	0.158	0.372	0.127	> 10	> 10	> 10	> 1	5.21	> 1	> 10	> 10	> 10	> 10	> 10	0.0355	4.09	> 10	> 20
MFE-280 (Endometrial Carcinoma)	> 10	> 10	> 3	> 1	0.533	> 10	> 0.3	> 1	> 2	> 0.001	> 1	0.198	> 3	> 1	4.94	7.53	> 10	> 1	> 1	> 1	> 10	> 10	> 10	> 1	> 10	> 1	> 10	0.177	> 10	> 10	3.59	> 0.3	> 5	> 10	> 20
NCI-H2342 (Lung Adenocarcinoma)	> 10	> 10	> 3	> 1	0.027	> 10	> 0.3	> 1	> 2	> 0.001	> 1	> 0.3	> 3	> 1	> 10	> 10	> 10	> 1	> 1	> 1	> 10	> 10	> 10	> 1	> 10	> 1	> 10	> 10	> 10	> 10	> 10	> 0.3	> 5	> 10	> 20
